Reference: patent US20240376099A1, “COMPOUNDS AND COMPOSITIONS AS INHIBITORS OF ENDOSOMAL TOLL-LIKE RECEPTORS” (Novartis AG, priority 2016, published 2024)

Molecular target: T1, TLR8 (Homo sapiens, UniProt Q9NR97)
T1 sequence (Q9NR97 27-1041): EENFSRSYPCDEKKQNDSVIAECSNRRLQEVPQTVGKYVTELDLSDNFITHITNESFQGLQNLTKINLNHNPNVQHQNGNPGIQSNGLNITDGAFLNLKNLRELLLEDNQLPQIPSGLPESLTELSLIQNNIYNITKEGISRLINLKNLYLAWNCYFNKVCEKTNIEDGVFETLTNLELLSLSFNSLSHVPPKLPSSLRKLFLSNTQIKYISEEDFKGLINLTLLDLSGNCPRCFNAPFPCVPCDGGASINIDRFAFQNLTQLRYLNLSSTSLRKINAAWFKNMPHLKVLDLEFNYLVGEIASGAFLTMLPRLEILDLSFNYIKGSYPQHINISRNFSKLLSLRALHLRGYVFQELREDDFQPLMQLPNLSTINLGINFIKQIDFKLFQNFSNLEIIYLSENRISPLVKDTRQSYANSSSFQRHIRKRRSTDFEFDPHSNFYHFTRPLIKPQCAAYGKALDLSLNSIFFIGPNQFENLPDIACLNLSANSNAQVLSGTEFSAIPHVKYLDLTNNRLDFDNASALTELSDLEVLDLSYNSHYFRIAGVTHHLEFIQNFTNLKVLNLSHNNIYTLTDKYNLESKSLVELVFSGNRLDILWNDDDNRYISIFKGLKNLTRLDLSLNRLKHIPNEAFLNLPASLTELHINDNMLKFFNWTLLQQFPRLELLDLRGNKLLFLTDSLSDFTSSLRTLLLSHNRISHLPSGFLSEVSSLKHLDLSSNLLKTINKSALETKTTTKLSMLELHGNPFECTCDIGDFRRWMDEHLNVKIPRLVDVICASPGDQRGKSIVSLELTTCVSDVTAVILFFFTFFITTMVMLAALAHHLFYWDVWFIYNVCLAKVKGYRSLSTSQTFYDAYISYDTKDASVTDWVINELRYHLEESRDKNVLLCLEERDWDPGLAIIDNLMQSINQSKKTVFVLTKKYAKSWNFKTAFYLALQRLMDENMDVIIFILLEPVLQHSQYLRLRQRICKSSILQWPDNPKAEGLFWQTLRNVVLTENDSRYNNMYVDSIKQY
Assay: huPBMC TLR8 Antagonist IL-6 TR-FRET Assay
Type: cell-based
Parameters: Fresh blood was collected from normal human donors; endogenous in cells; host or cells: human PBMCs from fresh donor blood
Settings: human PBMCs stimulated with ssRNA40 1 μg/ml (DOTAP), 14-16 hrs; IL-6 TR-FRET read-out
Description: Compounds were generally serially diluted (1/3) in DMSO and plated on sterile 384 well tissue culture plates and stored until ready for use. Each ten-point dilution was typically plated in triplicate in parallel rows.
Fresh blood was collected from normal human donors underwritten informed consent in heparinized syringes on the morning of the assay. The blood was diluted in RPMI-1640 medium and the white blood cells were separated from red blood cells by centrifugation (800 g 15′ 0 acceleration, 0 brake) on a Ficoll cushion. Peripheral blood mononuclear cells (PBMCs) were separated from platelets by a series of low-speed centrifugations (1000RPM 10′) in PBS+5% HI—FBS and 1 mM EDTA. Purified PBMCs were re-suspended in assay medium (RPMI-1640 w Glutamax (Invitrogen) supplemented with 5% HI—FBS, 10 mM HEPES, 50 uM β-mercaptoethanol, and 100 mG/L penicillin/streptomycin cocktail). Viable PBMCs were counted on a hemacytometer and kept on ice until ready for plating.
A 4× concentration (4 ug/ml or 40 ug/ml for TLR8 or TLR7 assays, respectively) of the TLR7/8 agonist ssRNA40 (IDT) was complexed with 10% DOTAP (Roche) in assay medium for 30 min prior to addition to the PBMC suspension (5 million cells/ml). After addition, the final concentration of ssRNA40 in the TLR7/8 stimulated PBMC suspension was 1 μg/ml for TLR8 assay, and 10 μg/mL for the TLR7 assay. The final DOTAP concentration was 2.5%. Diluted PBMCs (5 million cells/ml) were treated with 4×TLR9 agonist ODN2216 (Invivogen). Final concentration of ODN2216 in TLR9 stimulated PBMC suspension was 0.3 μM.
Agonist stimulated PBMCs were plated on the compound treated 384 well plates at 150,000 cells/well. Un-stimulated PBMCs were plated as controls on each plate. Plating volume was 40 μL per well. DMSO concentration in each well was 0.25%.
A separate plate, without compounds, with titrations of ssRNA40 and ODN2216 was included in every assay to measure agonist response of each donor's PBMC prep. Assay plates were placed in a tissue culture incubator (37° C., 5% CO2) for 14-16 hrs. After this incubation, the plates were centrifuged and stored at −20° C. until they were assayed.
IL-6 TR-FRET Assay for TLR8 activity: • 1) Cisbio Human IL-6 kit, 20,000 tests (62TNFPEC), and GNF High-Base TC 384 well plates (cat #789163G) were used; • 2) the Anti-TIL-6 Cryptate conjugate and the Anti-IL-6 XL665 conjugate were diluted 1:20 in Reconstitution Buffer; • 3) a 1:1 mixture of 3 μl/well Anti-IL-6 Cryptate conjugate and 3 μl/well Anti-IL-6 XL665 conjugate was prepared; • 4) 6 μl/well HTRF dilution mastermix was added to 6 μl of transferred supernatant samples in proxiplates; • 5) The plates were incubated for 3 hrs at rt in the dark; and • 6) the levels of IL-6 production was measured using an Envision plate reader (665 nm (emmission)/590 nm (excitation)) with HTRF settings and ratiometric read-out: (XL665 emission/Eu Cryptate emission)×10,000. IFNα2b AlphaLISA Assay for TLR7 or TLR9 activity After thawing the assay plates, 6 μL of supernatant samples were transferred to a low-volume AlphaPlate 384SW (Perkin-Elmer). The concentration of IFNα in supernatants was measured using the IFNα2b AlphaLISA Assay (Perkin-Elmer: AL297F). 3 μL of IFNα acceptor beads/biotinylated antibody solution was added first, using laboratory automation. After an hour incubation, […] of streptavidin […] bead solution was added. The plates containing this mixture were incubated in the dark for an hour and read on an appropriate plate reader at reading parameters set by the manufacturer. (Envision, EnSpire: Perkin-Elmer).

Row | IC50 | Compound
1 | 511 nM | Cc1nc(N2CCc3c(c(C)nn3CC34CCC(N)(CC3)CC4)C2)c2cc[nH]c2n1 [Compound No. 4, 4-((3-methyl-5-(2-methyl-7H-pyrrolo[2,3-d]pyrimidin-4-yl)-4,5,6,7-tetrahydro-1H-pyrazolo[4,3-c]pyridin-1-yl)methyl)bicyclo[2.2.2]octan-1-amine]
2 | 61 nM | Cc1cc(N2CCc3c(c(C)nn3CC34CCC(NC(=O)CN(C)C)(CC3)CC4)C2)c2cnn(C)c2n1 [Compound No. 7, N-(4-((5-(1,6-dimethyl-1H-pyrazolo[3,4-b]pyridin-4-yl)-3-methyl-4,5,6,7-tetrahydro-1H-pyrazolo[4,3-c]pyridin-1-yl)methyl)bicyclo[2.2.2]octan-1-yl)-2-(dimethylamino)acetamide]
3 | 379 nM | COCCN(CCOC)C12CCC(Cn3nc(C)c4c3CCN(c3cc(C)nc5c3cnn5C)C4)(CC1)CC2 [Compound No. 70, 4-((5-(1,6-dimethyl-1H-pyrazolo[3,4-b]pyridin-4-yl)-3-methyl-4,5,6,7-tetrahydro-1H-pyrazolo[4,3-c]pyridin-1-yl)methyl)-N,N-bis(2-methoxyethyl)bicyclo[2.2.2]octan-1-amine]
4 | 139 nM | COCCN(C)C12CCC(Cn3nc(C)c4c3CCN(c3cc(C)nc5c3cnn5C)C4)(CC1)CC2 [Compound No. 73, 4-((5-(1,6-dimethyl-1H-pyrazolo[3,4-b]pyridin-4-yl)-3-methyl-4,5,6,7-tetrahydro-1H-pyrazolo[4,3-c]pyridin-1-yl)methyl)-N-(2-methoxyethyl)-N-methylbicyclo[2.2.2]octan-1-amine]
5 | 201 nM | Cc1cc(N2CCc3c(c(C)nn3CC34CCC(NCC(=O)N(C)C)(CC3)CC4)C2)c2cnn(C)c2n1 [Compound No. 76, 2-((4-((5-(1,6-dimethyl-1H-pyrazolo[3,4-b]pyridin-4-yl)-3-methyl-4,5,6,7-tetrahydro-1H-pyrazolo[4,3-c]pyridin-1-yl)methyl)bicyclo[2.2.2]octan-1-yl)amino)-N,N-dimethylacetamide]
6 | 865 nM | Cc1nn(CC23CCC(N)(CC2)CC3)c2c1CN(c1nc(-c3ccc(F)cc3)nc3c1cnn3C)CC2 [Compound No. 83, 4-((5-(6-(4-fluorophenyl)-1-methyl-1H-pyrazolo[3,4-d]pyrimidin-4-yl)-3-methyl-4,5,6,7-tetrahydro-1H-pyrazolo[4,3-c]pyridin-1-yl)methyl)bicyclo[2.2.2]octan-1-amine]
7 | 699 nM | Cc1cc(N2CCc3c(c(C)nn3CC34CCC(N)(CC3)CC4)C2)c2ccccc2n1 [compound 62, -((3-methyl-5-(2-methylquinolin-4-yl)-4,5,6,7-tetrahydro-1H-pyrazolo[4,3-c]pyridin-1-yl)methyl)bicyclo[2.2.2]octan-1-amine]
8 | 2360 nM | Cc1cc(N2Cc3cn(CC45CCC(N)(CC4)CC5)nc3C(C)(C)C2)c2cnn(C)c2n1 [compound 65, 4-((5-(1,6-dimethyl-1H-pyrazolo[3,4-b]pyridin-4-yl)-7,7-dimethyl-4,5,6,7-tetrahydro-2H-pyrazolo[4,3-c]pyridin-2-yl)methyl)bicyclo[2.2.2]octan-1-amine]
9 | 1130 nM | Cc1cc(N2CCc3c(c(C)nn3CC34CCC(N5CCS(=O)(=O)CC5)(CC3)CC4)C2)c2cnn(C)c2n1 [compound 66, 4-(4-((5-(1,6-dimethyl-1H-pyrazolo[3,4-b]pyridin-4-yl)-3-methyl-4,5,6,7-tetrahydro-1H-pyrazolo[4,3-c]pyridin-1-yl)methyl)bicyclo[2.2.2]octan-1-yl)thiomorpholine 1,1-dioxide]
10 | 155 nM | Cc1cc(N2CCc3c(c(C)nn3CC34CCC(N5CC(O)C5)(CC3)CC4)C2)c2cnn(C)c2n1 [compound 68, 1-(4-((5-(1,6-dimethyl-1H-pyrazolo[3,4-b]pyridin-4-yl)-3-methyl-4,5,6,7-tetrahydro-1H-pyrazolo[4,3-c]pyridin-1-yl)methyl)bicyclo[2.2.]octan-1-yl)azetidin-3-ol]
11 | 474 nM | Cc1cc(N2CCc3c(c(C)nn3CC34CCC(N(C)C(C)C)(CC3)CC4)C2)c2cnn(C)c2n1 [compound 78, 4-((5-(1,6-dimethyl-1H-pyrazolo[3,4-b]pyridin-4-yl)-3-methyl-4,5,6,7-tetrahydro-1H-pyrazolo[4,3-c]pyridin-1-yl)methyl)-N-isopropyl-N-methylbicyclo[2.2.2]octan-1-amine]
12 | 395 nM | Cc1cc(N2CCc3c(c(C)nn3CC34CCC(N)(CC3)CO4)C2)c2cnn(C)c2n1 [compound 81, 1-((5-(1,6-dimethyl-1H-pyrazolo[3,4-b]pyridin-4-yl)-3-methyl-4,5,6,7-tetrahydro-1H-pyrazolo[4,3-c]pyridin-1-yl)methyl)-2-oxabicyclo[2.2.2]octan-4-amine]
13 | 486 nM | Cc1cc(N2CCc3c(c(C)nn3CC34CCC(N5CCCC5)(CC3)CO4)C2)c2cnn(C)c2n1 [compound 82, 5-(1,6-dimethyl-1H-pyrazolo[3,4-b]pyridin-4-yl)-3-methyl-1-((4-(pyrrolidin-1-yl)-2-oxabicyclo[2.2.2]octan-1-yl)methyl)-4,5,6,7-tetrahydro-1H-pyrazolo[4,3-c]pyridine]
14 | 1100 nM | Cc1nn(CC23CCC(N)(CC2)CC3)c2c1CN(c1ccnc(-c3ccc(F)cc3)c1)CC2 [compound 87, 4-((5-(2-(4-fluorophenyl)pyridin-4-yl)-3-methyl-4,5,6,7-tetrahydro-1H-pyrazolo[4,3-c]pyridin-1-yl)methyl)bicyclo[2.2.2]octan-1-amine]
15 | 715 nM | Cc1ccc(-c2cc(N3CCc4c(c(C)nn4CC45CCC(N)(CC4)CC5)C3)ccn2)c(F)c1 [compound 88, 4-((5-(2-(2-fluoro-4-methylphenyl)pyridin-4-yl)-3-methyl-4,5,6,7-tetrahydro-1H-pyrazolo[4,3-c]pyridin-1-yl)methyl)bicyclo[2.2.2]octan-1-amine]
